Here are results for 3 compounds from PMC8235151, “Glycoside Hydrolases and Non-Enzymatic Glycation Inhibitory Potential of Viburnum opulus L. Fruit—In Vitro Studies” (Antioxidants, 2021).

In brackets after ≈: the same amount, converted by molar mass. Entries after “also recorded” stand apart in the source; their conditions may differ.

Assay [1] addresses α-amylase porcine pancreas. Set-up: method as in PMID 16787002. The settings on record: cited from earlier work.
Assay [2] deals with rat intestinal α-glucosidase. The assay is described as follows: α-glucosidase inhibition assay (glucose release from disaccharide). The assay is classed as biochemical. The procedure: The assessment of the α-glucosidase activity was slightly modified according to […] et al. and Gao et al.. […] Enzyme isolation was performed in an ultrasonic cleaner (for 30 sec) in an ice bath, then 30 sec without ultrasonic. This step was repeated 12 times. After that, the solution was centrifuged at 4 °C (3000 rpm, 30 min). 50 μL of diluted V. opulus samples were mixed with 50 μL of enzyme supernatant (diluted 2 times for reaction with maltose). After incubation at 37 °C for 10 min, 50 μL of substrate (0.1 M maltose or 0.5 M sucrose solution prepared in 0.1 M phosphate buffer, pH 6.9) was added and incubated in a 96-well microplate at 37 °C for 20 min for maltose and 60 min for sucrose. The reaction was stopped by adding 150 μL of 2 M Tris-HCl buffer (pH 7.0). The concentration of glucose released from the reaction mixture was determined by the commercial glucose test (BIOMAXIMA SA, Lublin, Poland).

For assay [3], the target named is sucrase from rat small intestine. Also on record: method as in PMID 16787002. The settings on record: cited from earlier work.
For the next assay, the target named is T1, α-amylase (Sus scrofa, UniProt P00690).
T1 construct: purchased Sigma Aldrich (Steinheim, Germany) type VI-B (catalogue number not given); host or cells: porcine pancreas
T1 sequence (P00690 16-511): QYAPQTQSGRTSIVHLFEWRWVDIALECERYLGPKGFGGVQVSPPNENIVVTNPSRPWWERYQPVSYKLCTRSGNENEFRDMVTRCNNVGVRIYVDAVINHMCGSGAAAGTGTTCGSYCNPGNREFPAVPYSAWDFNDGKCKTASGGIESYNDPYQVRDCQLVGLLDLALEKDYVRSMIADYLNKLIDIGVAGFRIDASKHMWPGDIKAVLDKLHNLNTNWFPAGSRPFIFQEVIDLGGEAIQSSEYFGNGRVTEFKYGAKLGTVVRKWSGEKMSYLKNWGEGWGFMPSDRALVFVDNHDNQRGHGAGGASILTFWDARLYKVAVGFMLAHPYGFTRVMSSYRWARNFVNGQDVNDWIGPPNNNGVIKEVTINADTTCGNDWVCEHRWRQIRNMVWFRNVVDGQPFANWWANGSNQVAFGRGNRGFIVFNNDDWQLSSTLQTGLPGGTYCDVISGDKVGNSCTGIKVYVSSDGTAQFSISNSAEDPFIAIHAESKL
Also on record: method as in doi:10.3390/pr8111388. The settings on record: cited from earlier work.

Assay [4] has as its target maltase from rat small intestine. Also on record: method as in PMID 16787002. The settings on record: cited from earlier work.
Assay [5] addresses T2, α-amylase from porcine pancreas type VI-B (Sus scrofa, UniProt P00690).
T2 construct: α-amylase from porcine pancreas type VI-B; purchased Sigma Aldrich (Steinheim, Germany) type VI-B (catalogue number not given); host or cells: porcine pancreas
T2 sequence (P00690 16-511): T1 sequence (P00690 16-511)
The assay is described as follows: α-amylase inhibition assay (starch-iodine, spectrophotometric). The assay is classed as biochemical. The procedure: (§1) The α-amylase inhibition assay was based on a previously-described spectrophotometric method with some modifications. All reagents were prepared with 0.1 M phosphate buffer containing 6 mM CaCl2 (pH 6.9). Briefly, 20 µL of diluted V. opulus samples and 40 µL of potato starch (0.83 g/L) or starch from rice (1 g/L) solution were mixed with 20 µL of α-amylase (0.1 mg/mL for potato starch and 0.2 mg/mL for starch from rice) in a 96-well plate. […] The absorbance was read at 600 nm using a microplate reader (Synergy2, Biotek Instruments Inc., Winooski, VT, USA). […] Each sample was measured in triplicate.

In assay [6] the test system is AGE formation (BSA-fructose model). The assay is described as follows: Protein glycation inhibition assay, BSA-fructose model. Particulars: 37 °C, 6 days. The assay is classed as biochemical, bovine. Here is the method:
The bovine serum albumin (BSA) and glucose/fructose assay was carried according to the method of Błaszczak et al. with some modifications. We prepared 25 mL of the test solution containing D-glucose or D-fructose (1.0 M), BSA (10 mg/mL) and sodium azide (0.1 mg/mL) in the phosphate buffer (0.1 M, pH 7.4). The test solution (1 mL) was incubated in the dark at 37 °C for 13 days for glucose and for 6 days for fructose with or without 0.5 mL of tested V. opulus samples. […] Next, the formation of AGE was evaluated based on fluorescence intensity at λ = 330 nm (excitation wave) and λ = 460 nm (emission wave). Fluorescence intensity was measured in 96-well plates (black, OptiPlate-96 F, PerkinElmer, UK) in a microplate reader (Synergy2, BioTek Instruments Inc., Winooski, VT, USA).

Assay [7] relates to rat intestinal α-glucosidase. The assay is described as follows: Mode of α-glucosidase inhibition (Lineweaver-Burk). The assay is classed as biochemical. The settings on record: for type of inhibition against α-glucosidase: regardless of the type of disaccharide. The procedure: The assessment of the α-glucosidase activity was slightly modified according to […] et al. and Gao et al.. […] Enzyme isolation was performed in an ultrasonic cleaner (for 30 sec) in an ice bath, then 30 sec without ultrasonic. […] After that, the solution was centrifuged at 4 °C (3000 rpm, 30 min). 50 μL of diluted V. opulus samples were mixed with 50 μL of enzyme supernatant (diluted 2 times for reaction with maltose). After incubation at 37 °C for 10 min, 50 μL of substrate (0.1 M maltose or 0.5 M sucrose solution prepared in 0.1 M phosphate buffer, pH 6.9) was added and incubated in a 96-well microplate at 37 °C for 20 min for maltose and 60 min for sucrose. The reaction was stopped by adding 150 μL of 2 M Tris-HCl buffer (pH 7.0). The concentration of glucose released from the reaction mixture was determined by the commercial glucose test (BIOMAXIMA SA, Lublin, Poland). […] A double reciprocal graph (1/v versus 1/S, where “v” is the reaction rate and “S” the concentration of the substrate), was plotted. All samples were tested at three different doses using six concentrations of substrate.

Assay [8] concerns porcine pancreatic α-amylase. Particulars: potato and maize starch; cited from earlier work.
Assay [9] concerns the target T3, α-amylase from porcine pancreas (Sus scrofa, UniProt P00690).
T3 construct: α-amylase from porcine pancreas type VI-B; purchased Sigma Aldrich (Steinheim, Germany) type VI-B (catalogue number not given); host or cells: porcine pancreas
T3 sequence (P00690 16-511): T1 sequence (P00690 16-511)
The assay is described as follows: Mode of α-amylase inhibition (Lineweaver-Burk). The assay is classed as biochemical. The settings on record: for type of inhibition against α-amylase: regardless of the type of starch. Here is the method: as §1
The enzymes activities without and with tested samples were studied using the methods described in Section 2.5 and Section 2.6. A double reciprocal graph (1/v versus 1/S, where “v” is the reaction rate and “S” the concentration of the substrate), was plotted. All samples were tested at three different doses using six concentrations of substrate.

For assay [10], the system named is AGE formation (BSA-glucose model). The assay is described as follows: Protein glycation inhibition assay, BSA-glucose model. The assay is classed as biochemical, bovine. The settings on record: 37 °C, 13 days.
Protocol: The bovine serum albumin (BSA) and glucose/fructose assay was carried according to the method of Błaszczak et al. [45] with some modifications. We prepared 25 mL of the test solution containing D-glucose or D-fructose (1.0 M), BSA (10 mg/mL) and sodium azide (0.1 mg/mL) in the phosphate buffer (0.1 M, pH 7.4). The test solution (1 mL) was incubated in the dark at 37 °C for 13 days for glucose and for 6 days for fructose with or without 0.5 mL of tested V. opulus samples. […] Next, the formation of AGE was evaluated based on fluorescence intensity at λ = 330 nm (excitation wave) and λ = 460 nm (emission wave). Fluorescence intensity was measured in 96-well plates (black, OptiPlate-96 F, PerkinElmer, UK) in a microplate reader (Synergy2, BioTek Instruments Inc., Winooski, VT, USA).

For orientation: IC50 means the point on the concentration scale where inhibition reaches its midpoint. The Ki is the dissociation constant of the complex between target and ligand, obtained from inhibition or displacement.

As for `O=C(/C=C/c1ccc(O)c(O)c1)O[C@@H]1C[C@](O)(C(=O)O)C[C@@H](O)[C@H]1O` [Chlorogenic acid], the “IC50 on α-amylase” value in assay [1] was 13170 µg/mL (≈ 37.2 mM). For the same compound, the “lower inhibitory activity against α-glucosidase than PEAF” value in [2] (maltose) stood at 1.7 fold. Also, the “IC50 for the inhibition of α-glucosidase” value in [2] (substrate maltose) is on record as 103.37 ± 5.29bc µg/mL; in assay [2] (substrate sucrose), 99.81 ± 0.75ab µg/mL. The IC50 against sucrase in assay [3] was 500 µg/mL (≈ 1.41 mM). Moreover, the “lower inhibitory activity against α-amylase compared to acarbose” value on α-amylase is 5 fold. For the same compound, the IC50 against maltase in [4] is 8810 µg/mL (≈ 24.9 mM). The “IC50 towards α-amylase higher than IC50 for CE, on average” value in assay [5] (average of both starches) came out at 2.7 fold. Besides, the “IC50 towards α-amylase higher than IC50 for PE, on average” value in [5] (average of both starches) was found to be 14 fold. The IC50 in [5] (substrate potato starch) is 2.35 mM; in [5] (substrate starch from rice) it was 5.54 mM. In addition, the “IC50 for the inhibition of AGE formation” value in [6] was 58.87 ± 0.93c µg/mL. Besides, the “Inhibition Type” value in assay [7] (maltose) is recorded as “noncompetitive”; in [7] (sucrose) it was “noncompetitive”; in [9] (potato starch), “competitive”; in assay [9] (rice starch), “competitive”. Moreover, the Ki entry in [7] (maltose) was “/ 145.41 μg/mL”; in [7] (sucrose), “/ 181.21 μg/mL”; in [9] (potato starch) it was 3.46 mM; in assay [9] (rice starch) it was 5.32 mM. In addition, the “type of inhibition against α-glucosidase” value in assay [7] is listed as “noncompetitive-type inhibition”. For the same compound, the “type of inhibitory effect on α-amylase hydrolysis of starch” value in [8] was “mixed type inhibitory effect”. For the same compound, in assay [9], the “type of inhibition against α-amylase” value is listed as “competitive”.
In the case of `Cl.N=C(N)NN` [Aminoguanidine, aminoguanidine hydrochloride], the “IC50 for the inhibition of AGE formation” value is 137.80 ± 3.44a µg/mL in assay [10] and 106.08 ± 3.17 µg·days/mL in [6].
Regarding `C[C@H]1O[C@H](O[C@H]2[C@H](O)[C@@H](O)[C@@H](O[C@H]3[C@H](O)[C@@H](O)C(O)O[C@@H]3CO)O[C@@H]2CO)[C@H](O)[C@@H](O)[C@@H]1N[C@H]1C=C(CO)[C@@H](O)[C@H](O)[C@H]1O` (some centres unmarked) [Acarbose, acarbose], the “IC50 for the inhibition of α-glucosidase” value in assay [2] (substrate maltose) came to 0.051 ± 0.001a µg/mL; in assay [2] (substrate sucrose), 1.37 ± 0.04a µg/mL. Besides, the “Inhibition Type” value in assay [7] (maltose) is “mixed”; in assay [7] (sucrose), “mixed”; in assay [9] (potato starch), “uncompetitive”; in assay [9] (rice starch), “uncompetitive”. The figures for the Ki result in [7] (maltose) and in [7] (sucrose) were “/ 0.021 μg/mL” and “/ 1.52 μg/mL”, respectively. For the same compound, the “type of inhibition against α-glucosidase” value in assay [7] was “mixed type of inhibition (competitive and noncompetitive); also recorded: mixed mode of inhibition”. Besides, the “type of inhibition against α-amylase” value in [9] is “uncompetitive; also recorded: uncompetitively”.
